Source: patent US7432388B2 (Allergan, Inc., priority 2003, dated 2008)
pKi: −log10 of the molar value.

What was measured:
RARα = biological target: T1, RARα (Homo sapiens, UniProt P10276); experiment: chimeric receptor transactivation assay (agonist-like activity); format: cell-based; set-up: RAR EC50 (nM) (% Efficiency) α; settings: read-out: RAR EC50 (nM) (% Efficiency) α
T1 sequence (P10276 183-417 limits assumed): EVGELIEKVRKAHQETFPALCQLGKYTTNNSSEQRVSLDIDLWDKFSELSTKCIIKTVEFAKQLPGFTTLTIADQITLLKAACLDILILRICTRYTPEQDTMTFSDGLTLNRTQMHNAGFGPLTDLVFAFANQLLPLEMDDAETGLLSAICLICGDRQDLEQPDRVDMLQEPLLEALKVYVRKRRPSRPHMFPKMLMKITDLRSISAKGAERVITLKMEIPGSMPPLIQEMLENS
Protocol: (§1) Specifically, one assay in which the compounds were tested is a chimeric receptor transactivation assay which tests for agonist-like activity in the RARα, RARγ and RARγ receptor subtypes, and which is based on work published by Feigner P. L. and Holm M (1989) Focus, 112 is described in detail in U.S. Pat. No. 5,455,265. The specification of U.S. Pat. No. 5,455,265 is hereby expressly incorporated by reference.
(§2) A holoreceptor transactivation assay and a ligand binding assay which measure the antagonist/agonist like activity of the compounds of the invention, or their ability to bind to the several retinoid receptor subtypes, respectively, are described in published PCT Application No. WO WO93/11755 (particularly on pages 30-33 and 37-41) published on Jun. 24, 1993, the specification of which is also incorporated herein by reference. A detailed experimental procedure for holoreceptor transactivations has been described by Heyman et al. Cell 68, 397-406, (1992); Allegretto et al. J. Biol. Chem. 268, 26625-26633, and Mangelsdorf et al. The Retinoids: Biology, Chemistry and Medicine, pp 319-349, Raven Press Ltd., New York, which are expressly incorporated herein by reference. The results obtained in this assay are expressed in EC50 numbers, as they are also in the chimeric receptor transactivation assay. The other functional assay running in the presence of 1 nM all-trans retinoic acid, namely PGA-RAR antagonist assay (utilizing glucocorticoid-retinoid chimeric receptors), is a modified chimeric receptor transactivation assay which tests the compounds for their antagonist-like activity in the RARα, RARγ and RARγ receptor subtypes. The results from this assay are normally expressed in IC50 numbers (See Teng et al. J. Med. Chem. 40, 2445-2452, (1997) incorporated herein by reference.)

RARβ [1] = biological target: T2, RARβ (Homo sapiens, UniProt P10826); experiment: as above; format: cell-based; set-up: RAR EC50 (nM) (% Efficiency) β; settings: read-out: RAR EC50 (nM) (% Efficiency) β
T2 sequence (P10826 183-417 limits assumed): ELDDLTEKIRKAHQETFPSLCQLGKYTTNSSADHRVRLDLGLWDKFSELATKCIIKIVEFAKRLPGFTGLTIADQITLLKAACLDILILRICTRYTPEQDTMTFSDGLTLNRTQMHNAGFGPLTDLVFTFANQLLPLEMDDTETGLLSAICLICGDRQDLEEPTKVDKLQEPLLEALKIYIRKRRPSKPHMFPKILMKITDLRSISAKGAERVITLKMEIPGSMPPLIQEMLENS
Protocol: as §1, §2

RARγ [2] = biological target: T3, RARγ (Homo sapiens, UniProt P13631); experiment: ligand binding assay; settings: expressed in Ki numbers, read-out: RAR Binding γ
T3 sequence (P13631 1-454): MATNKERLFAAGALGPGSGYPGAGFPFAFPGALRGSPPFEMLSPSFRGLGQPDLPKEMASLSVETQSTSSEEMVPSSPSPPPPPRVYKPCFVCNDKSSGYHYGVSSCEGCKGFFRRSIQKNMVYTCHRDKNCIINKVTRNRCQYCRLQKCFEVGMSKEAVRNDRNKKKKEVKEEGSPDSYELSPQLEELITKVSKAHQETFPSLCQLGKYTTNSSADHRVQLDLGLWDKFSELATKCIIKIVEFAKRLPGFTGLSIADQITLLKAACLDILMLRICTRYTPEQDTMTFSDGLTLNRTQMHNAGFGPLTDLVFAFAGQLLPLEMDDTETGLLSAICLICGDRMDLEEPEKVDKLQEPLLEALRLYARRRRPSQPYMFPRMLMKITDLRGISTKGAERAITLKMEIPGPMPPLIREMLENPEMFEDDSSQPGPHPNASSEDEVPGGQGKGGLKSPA
Protocol: (§3) The results obtained in this assay are expressed in EC50 numbers, as they are also in the chimeric receptor transactivation assay. The other functional assay running in the presence of 1 nM all-trans retinoic acid, namely PGA-RAR antagonist assay (utilizing glucocorticoid-retinoid chimeric receptors), is a modified chimeric receptor transactivation assay which tests the compounds for their antagonist-like activity in the RARα, RARγ and RARγ receptor subtypes.
The results of the ligand binding assay are expressed in Ki numbers.

RARγ [3] = biological target: T4, RARγ (Homo sapiens, UniProt P13631); experiment: chimeric receptor transactivation assay (agonist-like activity); format: cell-based; set-up: RAR EC50 (nM) (% Efficiency) γ; settings: read-out: RAR EC50 (nM) (% Efficiency) γ
T4 sequence (P13631 185-419 limits assumed): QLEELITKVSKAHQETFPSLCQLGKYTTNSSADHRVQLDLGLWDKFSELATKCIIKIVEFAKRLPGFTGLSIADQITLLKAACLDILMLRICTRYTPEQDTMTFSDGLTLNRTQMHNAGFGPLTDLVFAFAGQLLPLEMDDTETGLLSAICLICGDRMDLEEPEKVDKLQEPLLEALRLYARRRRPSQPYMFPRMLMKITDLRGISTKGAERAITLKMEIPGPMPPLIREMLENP

RARβ [4] = biological target: T2, RARβ; experiment: PGA-RAR antagonist assay (glucocorticoid-retinoid chimeric receptors); format: cell-based; set-up: other: in the presence of 1 nM all-trans retinoic acid; fused on or other part: Glucocorticoid receptor DNA-recognition part in place of RAR's own; settings: in the presence of 1 nM all-trans retinoic acid; read-out: RAR IC50 (nM) (% Inhibition) β
Source text: as §2
Percentage inhibition in an antagonist assay is expressed as a percentage of the maximum inhibition of the transaction activity induced by 1 nM all-trans retinoic acid.

RARγ [5] = biological target: T4, RARγ; experiment: as above; format: cell-based; set-up: RAR IC50 (nM) γ; other: in the presence of 1 nM all-trans retinoic acid; fused on or other part: Glucocorticoid receptor DNA-recognition part in place of RAR's own; settings: for IC50: in the presence of 1 nM all-trans retinoic acid, read-out: RAR IC50 (nM) γ; for RAR γ (% Inhibition): percentage of the maximum inhibition of the activity induced by 1 nM all-trans retinoic acid
Protocol: as §3

SMILES	EC50 (RARα) [nM]	EC50 (RARβ [1]) [nM]	pKi (RARγ [2])	EC50 (RARγ [3]) [nM]	IC50 (RARβ [4]) [nM]	IC50 (RARγ [5]) [nM]	RAR γ (% Inhibition) (RARγ [5]) [%]
Cc1ccc(C2=CCC(C)(C)c3cc(C(/C=C/c4ccc(C(=O)O)cc4)=NO)ccc32)cc1 (racemic) [Compound 7c, 4-[3-(8,8-Dimethyl-5-p-tolyl-7,8-dihydro-naphthalen-2-yl)-3-hydroxyimino-propenyl]-benzoic acid]	> 10000	> 10000	8.22	> 10000	> 100000	2	108
Cc1ccc(C2=CCC(C)(C)c3cc(C(/C=C/c4ccc(C(=O)O)cc4)=N/O)ccc32)cc1 [Compound 7a, E-4-[3-(8,8-Dimethyl-5-p-tolyl-7,8-dihydro-naphthalen-2-yl)-3-hydroxyimino-propenyl]-benzoic acid]	> 10000	> 10000	8.52	> 10000	> 1000	0.6	95
Cc1ccc(C2=CCC(C)(C)c3cc(C(/C=C/c4ccc(C(=O)O)cc4)=N\O)ccc32)cc1 [Compound 7b, Z-4-[3-(8,8-dimethyl-5-p-tolyl-7,8-dihydro-naphthalen-2-yl)-3-hydroxyimino-propenyl]-benzoic acid]	> 10000	> 10000	7.54	> 10000	> 1000	25	88
Cc1ccc(C2=CCC(C)(C)c3cc(C(/C=C/c4ccc(C(=O)O)cc4F)=N/O)ccc32)cc1 [Compound 9a, E-4-[3-(8,8-Dimethyl-5-p-tolyl-7,8-dihydro-naphthalen-2-yl)-3-hydroxyimino-propenyl]-3-fluoro-benzoic acid]	> 10000	> 10000	7.96	> 10000	> 1000	5	90
Cc1ccc(C2=CCC(C)(C)c3cc(C(/C=C/c4ccc(C(=O)O)cc4F)=N\O)ccc32)cc1 [Compound 9b, Z-4-[3-(8,8-Dimethyl-5-p-tolyl-7,8-dihydro-naphthalen-2-yl)-3-hydroxyimino-propenyl]-3-fluoro-benzoic acid]	> 10000	> 10000	6.88	> 10000	> 1000	13	78
Cc1ccc(C2=CC(C)(C)c3cc(C(/C=C/c4ccc(C(=O)O)cc4)=N/O)ccc32)cc1 [Compound 16a]	> 10000	> 10000	7.60	> 10000	> 1000	27	78
Cc1ccc(C2=CC(C)(C)c3cc(C(/C=C/c4ccc(C(=O)O)cc4)=N\O)ccc32)cc1 [Compound 16b]	> 10000	> 10000	6.84	> 10000	> 1000	67	54
Cc1ccc(C2=CC(C)(C)c3cc(C(/C=C/c4ccc(C(=O)O)cc4F)=N/O)ccc32)cc1 [Compound 18a, E-4-[3-(3,3-Dimethyl-1-p-tolyl-3H-inden-5-yl)-3-hydroxyimino-propenyl]-3-fluoro-benzoic acid]	> 10000	> 10000	7.15	> 10000	> 1000	52	70
Cc1ccc(C2=CC(C)(C)c3cc(C(/C=C/c4ccc(C(=O)O)cc4F)=N\O)ccc32)cc1 [Compound 18b, Z-4-[3-(3,3-Dimethyl-1-p-tolyl-3H-inden-5-yl)-3-hydroxyimino-propenyl]-3-fluoro-benzoic acid]	> 10000	> 10000	6.14	> 10000	> 1000	226	58
